Laboratory results reported in ChEMBL document CHEMBL1201862, “PubChem BioAssay data set” (2004).
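All cell lines were grown in 96-well plates and treated with compound for 48 hours. Here, GI50 denotes the concentration required for 50% inhibition of growth.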 Active and inactive are the calls of the source. No stated cut-off is given here; in the data, active = GI50 up to about 1.1 µM and inactive = higher.

Key:
Experiment in all cases: NCI anticancer screen, dose series, 48 h
786-0 = tested on: 786-0
A498 = tested on: A498
CAKI-1 = tested on: CAKI-1
DU-145 = tested on: DU-145
HL-60 = tested on: HL-60
K562 = tested on: K562
MDA-MB-231 = tested on: MDA-MB-231
Malme-3M = tested on: Malme-3M
NCI-H23 = tested on: NCI-H23
NCI-H460 = tested on: NCI-H460
OVCAR-5 = tested on: OVCAR-5
OVCAR-8 = tested on: OVCAR-8
RPMI-8226 = tested on: RPMI-8226
RXF 393 = tested on: RXF 393
SF-268 = tested on: SF-268
SF-539 = tested on: SF-539
SK-MEL-5 = tested on: SK-MEL-5
UO-31 = tested on: UO-31
HOP-62 = tested on: HOP-62

Compound | GI50 (786-0) | GI50 (A498) | GI50 (CAKI-1) | GI50 (DU-145) | GI50 (HL-60) | GI50 (K562) | GI50 (MDA-MB-231) | GI50 (Malme-3M) | GI50 (NCI-H23) | GI50 (NCI-H460) | GI50 (OVCAR-5) | GI50 (OVCAR-8) | GI50 (RPMI-8226) | GI50 (RXF 393) | GI50 (SF-268) | GI50 (SF-539) | GI50 (SK-MEL-5) | GI50 (UO-31) | GI50 (HOP-62)
O=c1c2cccnc2[s+]([O-])n1Cc1ccccc1 (stereo not given) | > 100 µM (inactive) | > 100 µM (inactive) | > 100 µM (inactive) | > 100 µM (inactive) | > 10 µM (inactive) | > 100 µM (inactive) | > 100 µM (inactive) | > 100 µM (inactive) | > 100 µM (inactive) | > 100 µM (inactive) | > 100 µM (inactive) | > 100 µM (inactive) | > 100 µM (inactive) | > 100 µM (inactive) | > 100 µM (inactive) | > 100 µM (inactive) | > 100 µM (inactive) | > 100 µM (inactive) | 
COc1cc2c(C)cc(O)cc2c2cc(O)c(C)cc12 | 8.43 µM (inactive) | 11.2 µM (inactive) | 11.7 µM (inactive) | 10.9 µM (inactive) | 2.96 µM (inactive) | 2.48 µM (inactive) | 9.66 µM (inactive) |  | 11.5 µM (inactive) | 2.56 µM (inactive) | 13.7 µM (inactive) | 14.4 µM (inactive) | 1.91 µM (inactive) | 12.4 µM (inactive) | 13.7 µM (inactive) | 9.14 µM (inactive) | 10.5 µM (inactive) | 9.66 µM (inactive) | 5.57 µM (inactive)
CN1CC2=C(N=C(S)NC2c2ccccc2Cl)/C(=C/c2ccccc2Cl)C1 (stereo not given) | > 100 µM (inactive) | 77.3 µM (inactive) | > 100 µM (inactive) | 76.2 µM (inactive) | 21.8 µM (inactive) | 29 µM (inactive) | 26.2 µM (inactive) | 25.9 µM (inactive) | 43.2 µM (inactive) | > 100 µM (inactive) | > 100 µM (inactive) | 33 µM (inactive) |  | > 100 µM (inactive) | 95.9 µM (inactive) | 73.6 µM (inactive) | 12.2 µM (inactive) | 25.6 µM (inactive) | > 100 µM (inactive)
COC(=O)CCn1cnc2c(SC)ncnc21 | > 100 µM (inactive) | > 100 µM (inactive) | > 100 µM (inactive) | > 100 µM (inactive) | > 100 µM (inactive) | > 100 µM (inactive) | > 100 µM (inactive) | > 100 µM (inactive) | > 100 µM (inactive) | > 100 µM (inactive) | > 100 µM (inactive) | > 100 µM (inactive) | > 100 µM (inactive) | > 100 µM (inactive) | > 100 µM (inactive) | > 100 µM (inactive) | > 100 µM (inactive) | > 100 µM (inactive) | > 100 µM (inactive)
COc1cc([C@@H]2c3cc4c(cc3[C@@H](c3c(O)cc(O)c5c3O[C@H](c3ccc(O)c(O)c3)[C@@H](O)C5)[C@H]3COC(=O)[C@H]23)OCO4)cc(OC)c1OC | 24 µM (inactive) | 1.6 µM (inactive) | 1.97 µM (inactive) | 1.73 µM (inactive) | 38.8 µM (inactive) | 9.31 µM (inactive) | 1.67 µM (inactive) | > 100 µM (inactive) | 78 µM (inactive) | 1.87 µM (inactive) | 27.2 µM (inactive) | 44.4 µM (inactive) | 19.6 µM (inactive) | 1.71 µM (inactive) | 29.7 µM (inactive) | 17.6 µM (inactive) | 17 µM (inactive) |  | 1.88 µM (inactive)
O=C(O)CN1CCN2CCOCCN(CC1)CCN(CC(=O)O)CC2 | > 100 µM (inactive) | > 100 µM (inactive) | > 100 µM (inactive) | > 100 µM (inactive) | > 53.3 µM (inactive) | > 100 µM (inactive) | > 100 µM (inactive) | > 100 µM (inactive) | > 100 µM (inactive) | > 100 µM (inactive) | > 100 µM (inactive) | > 100 µM (inactive) | > 100 µM (inactive) | > 100 µM (inactive) | > 100 µM (inactive) | > 100 µM (inactive) | > 100 µM (inactive) | > 100 µM (inactive) | > 100 µM (inactive)
CC1OC(OC2C(Oc3cc(O)c4c(c3)O[C@H](c3ccc(O)cc3)CC4=O)OC(CO)C(O)C2O)C(O)C(O)C1O (stereo not given in full) | > 100 µM (inactive) | > 100 µM (inactive) | > 100 µM (inactive) | > 100 µM (inactive) | > 100 µM (inactive) |  | > 100 µM (inactive) | > 100 µM (inactive) | > 100 µM (inactive) |  | > 100 µM (inactive) | > 100 µM (inactive) | > 100 µM (inactive) | > 100 µM (inactive) | > 100 µM (inactive) | > 100 µM (inactive) | > 100 µM (inactive) | > 100 µM (inactive) | > 100 µM (inactive)
N#Cc1nc(C(O)c2ccccc2)oc1N (stereo not given) | > 100 µM (inactive) | > 100 µM (inactive) | > 100 µM (inactive) | > 100 µM (inactive) | > 100 µM (inactive) | > 100 µM (inactive) | > 100 µM (inactive) | > 100 µM (inactive) | > 100 µM (inactive) |  | > 100 µM (inactive) | > 100 µM (inactive) | > 100 µM (inactive) | 17.9 µM (inactive) | > 100 µM (inactive) | > 100 µM (inactive) | > 100 µM (inactive) | > 100 µM (inactive) | > 100 µM (inactive)
CC[C@@]1(O)C(=O)OCc2c1cc1n(c2=O)Cc2c-1nc1ccccc1c2/C=N\NC(=O)C(C)N (stereo not given in full) | 0.069 µM (active) | 0.111 µM (active) | 0.071 µM (active) | 0.0401 µM (active) | < 0.028 µM (active) |  | 27 µM (inactive) | 1.64 µM (inactive) | < 0.0214 µM (active) | < 0.0243 µM (active) | 6.71 µM (inactive) | 0.0923 µM (active) |  | 1.04 µM (active) | < 0.017 µM (active) | < 0.0116 µM (active) | 0.238 µM (active) | 0.182 µM (active) | < 0.0266 µM (active)
Nc1nc(N)c(N=O)c(Nc2ccc(O)cc2)n1 | > 55.7 µM (inactive) | > 55.8 µM (inactive) | > 45.4 µM (inactive) | 34.6 µM (inactive) | 9.53 µM (inactive) | > 45.6 µM (inactive) | > 58.3 µM (inactive) | 33.4 µM (inactive) | 49.9 µM (inactive) | > 61.1 µM (inactive) |  | 32 µM (inactive) | > 44.4 µM (inactive) | 93.3 µM (inactive) | 38 µM (inactive) | 6.56 µM (inactive) | 26.5 µM (inactive) | 41.5 µM (inactive) | 37.5 µM (inactive)
COC(=O)C1=C(O)CCCC(CCC(C)=O)=C1 | 26.9 µM (inactive) | > 100 µM (inactive) | 47.6 µM (inactive) | 41.2 µM (inactive) | 3.99 µM (inactive) | 31.3 µM (inactive) | 73.8 µM (inactive) | 41.3 µM (inactive) | 94.4 µM (inactive) | 30.7 µM (inactive) | > 100 µM (inactive) | 56.5 µM (inactive) | 29.4 µM (inactive) | 33.4 µM (inactive) | > 100 µM (inactive) | 22.2 µM (inactive) | > 100 µM (inactive) | 39.9 µM (inactive) | 
O=C(O)C(C1NCCS1)N1Cc2ccccc2C1 (stereo not given) | > 100 µM (inactive) | > 100 µM (inactive) | > 100 µM (inactive) | > 100 µM (inactive) | > 100 µM (inactive) | > 100 µM (inactive) | > 100 µM (inactive) | > 100 µM (inactive) | > 100 µM (inactive) | > 100 µM (inactive) | > 100 µM (inactive) | > 100 µM (inactive) | > 100 µM (inactive) | > 100 µM (inactive) |  | > 100 µM (inactive) | > 100 µM (inactive) | > 100 µM (inactive) | > 100 µM (inactive)
COc1nc2c(c(=O)[nH]1)N=C(c1ccccc1)CC(c1ccccc1)N2 (stereo not given) | 37.7 µM (inactive) | > 100 µM (inactive) | 91 µM (inactive) | 82 µM (inactive) | > 10 µM (inactive) | 25.3 µM (inactive) | 33 µM (inactive) | 72.9 µM (inactive) | 74.3 µM (inactive) | 35.6 µM (inactive) | > 100 µM (inactive) | 28.1 µM (inactive) | 27.2 µM (inactive) | 31 µM (inactive) |  | 48.1 µM (inactive) | 38.3 µM (inactive) | 39.6 µM (inactive) | 95.1 µM (inactive)
Oc1ccccc1C1=NOC(c2ccc(C(F)(F)F)cc2)C1 (stereo not given) | > 50 µM (inactive) | > 50 µM (inactive) | > 50 µM (inactive) | > 50 µM (inactive) | > 50 µM (inactive) | > 50 µM (inactive) | > 41.6 µM (inactive) | > 50 µM (inactive) | > 50 µM (inactive) | > 50 µM (inactive) | > 50 µM (inactive) | > 50 µM (inactive) | > 50 µM (inactive) | > 50 µM (inactive) | > 50 µM (inactive) | > 50 µM (inactive) | > 50 µM (inactive) |  | > 50 µM (inactive)
CC(C)=NOC(=O)OC[C@H]1O[C@@H](n2cnc3c(N)ncnc32)C(O)C1O (stereo not given in full) | 70 µM (inactive) | > 100 µM (inactive) |  | > 100 µM (inactive) | 45.7 µM (inactive) | 30.1 µM (inactive) | > 100 µM (inactive) | > 100 µM (inactive) | > 100 µM (inactive) | 40.9 µM (inactive) | > 100 µM (inactive) | > 100 µM (inactive) | 52 µM (inactive) | > 100 µM (inactive) | > 100 µM (inactive) | > 100 µM (inactive) | > 100 µM (inactive) | > 100 µM (inactive) | > 100 µM (inactive)
